Measurements published in ChEMBL document CHEMBL5038667, “Discovery of an Amino Acid-Modified Near-Infrared Aza-BODIPY Photosensitizer as an Immune Initiator for Potent Photodynamic Therapy in Melanoma” (J Med Chem, 2022).
Active and inactive are the calls of the source. No cut-off for these calls is given here.

Columns and labels:
B16-F10 [1] = test: Antitumor immunity against mouse B16-F10 cells assessed as release of HMGB1 at 10 nM incubated for 16 hrs followed by irradiated with 54 J/cm^2 light dose and further incubated for 6 hrs by Alexa Fluor 488/Hoechst 33342 staining based confocal laser scanning microscopy; assay type: functional, cell-based
B16-F10 [2] = test: Photodynamic therapy in mouse B16-F10 cells implanted in C57BL/6 mouse model assessed as increase in infiltration of CD8+ T cells by APC/FITC/PE staining based flow cytometric analysis (reference value: 3.68 %); assay type: functional
B16-F10 [3] = test: Antitumor activity against mouse B16-F10 cells implanted in C57BL/6 mouse assessed as tumor destruction at 2 mg/kg, iv irradiated with 60 J/cm^2 laser light measured after 14 days by hematoxylin and eosin based microscopic analysis; assay type: functional, organism-based; conditions: time 14.0 day
B16-F10 [4] = test: Antitumor immunity against mouse B16-F10 cells assessed as release of HMGB1 at 250 nM incubated for 16 hrs followed by irradiated with 54 J/cm^2 light dose and further incubated for 6 hrs by Alexa Fluor 488/Hoechst 33342 staining based confocal laser scanning microscopy; assay type: functional, cell-based
B16-F10 [5] = test: Induction of apoptosis in mouse B16-F10 cells assessed as viable cells at 250 nM incubated for 16 hrs followed by irradiated with 54 J/cm^2 of light dose by Annexin V-FITC/PI based flow cytometric analysis (reference value: 87.45 %); assay type: functional; conditions: B16-F10, light or radiation study, read-out: Activity
B16-F10 [6] = test: Antitumor activity against mouse B16-F10 cells implanted in C57BL/6 mouse assessed as inhibition of tumor growth at 2 mg/kg, iv irradiated with 60 J/cm^2 laser light by IVIS imaging analysis measured upto 48 hrs; assay type: functional, organism-based; conditions: time hrs <=48
[7] = Drug localisation in lysosome of mouse B16-F10 cells at 5 uM incubated for 16 hrs by Lyso Tracker Green based confocal laser scanning microscopy analysis; assay type: ADME, subcellular; conditions: b16-f10, 16 h
B16-F10 [8] = test: Induction of apoptosis in mouse B16-F10 cells assessed as necrotic cells at 50 nM incubated for 16 hrs followed by irradiated with 54 J/cm^2 light dose by Annexin V-FITC/PI based flow cytometric analysis (reference value: 3.75 %); assay type: functional
[9] = Drug elimination in C57BL/6 mouse harboring B16-F10 cells at 2 mg/kg, iv measured after 48 hrs by fluorescence imaging assay; assay type: ADME, organism-based; conditions: in vivo
[10] = Phototoxicity against mouse B16-F10 cells assessed as reduction in cell viability incubated for 16 hrs followed by irradiated with 54 J/cm^2 of light dose and further incubated for 24 hrs by CCK-8 assay; assay type: toxicity, cell-based; conditions: B16-F10, light or radiation study
B16-F10 [11] = test: Induction of apoptosis in mouse B16-F10 cells assessed as viable cells at 50 nM incubated for 16 hrs followed by irradiated with 54 J/cm^2 of light dose by Annexin V-FITC/PI based flow cytometric analysis (reference value: 87.45 %); assay type: functional; conditions: B16-F10, light or radiation study, read-out: Activity
A-375 [12] = test: Induction of apoptosis in human A-375 cells assessed as total apoptotic cells at 250 nM incubated for 16 hrs followed by irradiated with 54 J/cm^2 light dose by Annexin V-FITC/PI based flow cytometric analysis (reference value: 4.79 %); assay type: functional
[13] = Phototoxicity against human A-375 cells assessed as reduction in cell viability incubated for 16 hrs followed by irradiated with 54 J/cm^2 of light dose and further incubated for 24 hrs by CCK-8 assay; assay type: toxicity, cell-based; conditions: A-375, light or radiation study
B16-F10 [14] = test: Biodistribution in tumor of C57BL/6 mouse harboring mouse B16-F10 cells at 2 mg/kg, iv measured after 12 hrs by flourescence imaging assay; assay type: ADME, organism-based; conditions: in vivo
B16-F10 [15] = test: Antitumor immunity against mouse B16-F10 cells assessed as surface translocation of CRT at 50 nM incubated for 16 hrs followed by irradiated with 54 J/cm^2 light dose and further incubated for 6 hrs by Alexa Fluor 488/Hoechst 33342 staining based confocal laser scanning microscopy; assay type: functional, cell-based
[16] = Drug localisation in endoplasmic reticulum of human A-375 cells at 5 uM incubated for 16 hrs by ER Tracker Green based confocal laser scanning microscopy analysis; assay type: ADME, subcellular; conditions: a-375, 16 h
B16-F10 [17] = test: Antitumor immunity against mouse B16-F10 cells assessed as surface translocation of CRT at 10 nM incubated for 16 hrs followed by irradiated with 54 J/cm^2 light dose and further incubated for 6 hrs by Alexa Fluor 488/Hoechst 33342 staining based confocal laser scanning microscopy; assay type: functional, cell-based
A-375 [18] = test: Induction of ROS generation in human A-375 cells assessed as cells with high intracellular ROS levels at 100 nM incubated for 16 hrs followed by irradiated with 54 J/cm2 light dose by H2DCFDA fluorescent probe based flow cytometry method (reference value: 2.09 %); assay type: functional
B16-F10 [19] = test: Dark toxicity against mouse B16-F10 cells assessed as reduction in cell viability incubated for 16 hrs by CCK-8 assay; assay type: cell-based; conditions: B16-F10, 16 h
B16-F10 [20] = test: Induction of apoptosis in mouse B16-F10 cells assessed as necrotic cells at 250 nM incubated for 16 hrs followed by irradiated with 54 J/cm^2 light dose by Annexin V-FITC/PI based flow cytometric analysis (reference value: 3.75 %); assay type: functional
A-375 [21] = test: Induction of ROS generation in human A-375 cells assessed as cells with high intracellular ROS levels at 20 nM incubated for 16 hrs followed by irradiated with 54 J/cm2 light dose by H2DCFDA fluorescent probe based flow cytometry method (reference value: 2.09 %); assay type: functional
B16-F10 [22] = test: Antitumor immunity against mouse B16-F10 cells assessed as release of HMGB1 at 50 nM incubated for 16 hrs followed by irradiated with 54 J/cm^2 light dose and further incubated for 6 hrs by Alexa Fluor 488/Hoechst 33342 staining based confocal laser scanning microscopy; assay type: functional, cell-based
B16-F10 [23] = test: Photodynamic therapy in mouse B16-F10 cells implanted in C57BL/6 mouse model assessed as increase infiltration of CD4+ T cells measured after 3 days by immunofluorescence staining based analysis; assay type: functional, cell-based; conditions: time 3.0 day
[24] = Drug localisation in lysosome of human A-375 cells at 5 uM incubated for 16 hrs by Lyso Tracker Green based confocal laser scanning microscopy analysis; assay type: ADME, subcellular; conditions: a-375, 16 h
[25] = Lipophilicity, logP of compound; assay type: physicochemical; conditions: octanol/water

In the case of `COc1ccc(C2=[N+]3C(=Nc4c(-c5ccccc5)c5c(n4[B-]3(F)F)-c3ccc(OCC(=O)N[C@@H](CC(=O)O)C(=O)O)cc3CC5)C(c3ccccc3)=C2I)cc1`, the Activity (B16-F10 [1]) is reported as “inactive”, the Activity (B16-F10 [2]) is reported as 7.98% and the Activity (B16-F10 [3]) is reported as “Active”. For the same compound, the Activity (B16-F10 [4]) was “inactive”, the viability at 0.25 µM (B16-F10 [5]) was 3.76% and the Activity (B16-F10 [6]) was “Active”. For the same compound, the Drug uptake [7] was “Active”, the Activity (B16-F10 [8]) was 3.51% and the Drug excretion [9] was “Active”. For the same compound, the IC50 [10] was 65 nM, the viability at 0.05 µM (B16-F10 [11]) was 41.9% and the Activity (A-375 [12]) was 93.81%. The IC50 [13] was 81 nM, the Drug uptake (B16-F10 [14]) was “Active” and the Activity (B16-F10 [15]) was “Active”. The Drug uptake [16] was “Active”, the Activity (B16-F10 [17]) was “inactive” and the Activity (A-375 [18]) was 53.15%. For the same compound, the IC50 (B16-F10 [19]) was > 250000 nM, the Activity (B16-F10 [20]) was 0.29% and the Activity (A-375 [21]) was 4.57%. For the same compound, the Activity (B16-F10 [22]) was “Active”, the Activity (B16-F10 [23]) was “Active” and the Drug uptake [24] was “Active”. For the same compound, the logP [25] was -0.77.
